In brackets after ≈: the same amount, converted by molar mass. Like-named read-outs stand apart in the source and are kept apart here.
Experiments:
HuR = biological target: T1, HuR (Homo sapiens, UniProt Q15717); test: cell-based split firefly luciferase-HuR dimerization assay; settings: for HuR N/C Imax % Inh: Concn 50 uM; for IC50: read-out: HuR IC50
T1 construct: expressed in transfected cells; host or cells: U251 glioma cells, doxycycline-inducible constructs
Procedure: (§1) The oncogenic activity of HuR is driven by subcellular localization into the cytoplasm and formation of multimers of HuR. To develop cell based assays to characterize the ability of small molecules to disrupt this process, a split luciferase assay detecting the formation of HuR dimers was developed. The assays were performed in 96 well plates with clear bottom (Corning Inc., Corning, NY). Cells with designed constructs (30,000-50,000 in number) were plated per well; the constructs were induced by doxycycline (0.75 ug/ml) for 48 hours. The evaluated compounds at different concentrations and the corresponding vehicle as the control were administered for 6 hours. The luminescence signals were detected by using InfinitiM200 plate reader (TECAN, Morrisville, NC) in the presence of the luciferase substrate luciferin (D-Luciferin, potassium salt), which was purchased from GoldBio (St Louis, MO). A multichannel pipette (XL 3000I™, Denville Scientific, South Plainfield, NJ) was used in all procedures to ensure the experiment quality.
The assay used the coding sequence of HuR in frame with the N-terminus of firefly luciferase or the C-terminus as depicted in FIG. 2A. When HuR forms dimers in this case, luciferase is generated and with luciferin present, luminescence is generated.
(§2) Squares represent luminescence signal from reporter representing HuR dimers (U251 cells co-expressing HuR-Nluc and HuR-Cluc constructs); circles represent luminescence signal from control reporter (U251 cells expressing Fluc construct). Results are shown as mean+SD.

[1] = system: U251 cells expressing Fluc construct; test: control Fluc (full length luciferase) reporter assay in U251 cells; assay type: cell-based; settings: Homo sapiens, U-251, 6 h; Concn 50 uM; read-out: Fluc Imax % Inh
Procedure: as §1, with “quality. […]” for “quality.”
as §2

[2] = aqueous solubility at pH 7.4; assay type: physicochemical; settings: aqueous medium at pH 7.4, pH 7.4, aqueous buffer; read-out: Sol @ pH 7.4
Procedure: (§6) Selected compounds were assessed for their aqueous solubility, Log D and mouse and human liver microsomal stability.

Log D at pH 7.4 = assay type: physicochemical
Procedure: as §6

[3] = Mouse liver microsomal stability in vitro; assay type: in vitro ADME; settings: liver microsomes, read-out: MLM t1/2
Procedure: as §6

in vitro = settings: human, liver microsomes
Procedure: as §6

AAK1 = AAK1 (Homo sapiens, UniProt Q2M2I8); test: SelectScreen kinase profiling, LanthaScreen Binding
Procedure: (§3) The kinase inhibitory potentials of compounds as described herein (e.g., SRI-42127 and SRI-41664) were evaluated by ThermoFisher Scientific's SelectScreen™ Kinase Profiling Service. The following kinase inhibitory assays were utilized: ZLYTE (Madison, WI) for NTRK1, PIM1, and cMET kinases; LanthaScreen Binding (Madison, WI) for AAK1 kinase; and Adapta (Madison, WI) for IRAK1 kinase.

IRAK1 = IRAK1 (Homo sapiens, UniProt P51617); test: SelectScreen kinase profiling, Adapta; assay type: biochemical
Procedure: as §3

PIM1 = PIM1 (Homo sapiens, UniProt P11309); test: SelectScreen kinase profiling, ZLYTE; assay type: biochemical
Procedure: as §3

TRKA (NTRK1) = TRKA (NTRK1) (Homo sapiens, UniProt P04629); test: SelectScreen kinase profiling, ZLYTE; assay type: biochemical
Procedure: as §3

cMET = cMET (Homo sapiens, UniProt P08581); test: SelectScreen kinase profiling, ZLYTE; assay type: biochemical
Procedure: as §3

LN229 glioma cell line = test: PrestoBlue cell viability assay; assay type: cell-based; settings: Homo sapiens, LN-229; LN229, 48 hours of treatment
Procedure: (§4) PrestoBlue cell viability reagent (ThermoFisher Scientific; Waltham, MA) was used for cell viability assays. The inhibitory dose-response data were normalized to the control (treatment with vehicle); the inhibitory dose-response curves, which were fitted by using Boltzmann equation, and the corresponding IC50s were generated by using OriginPro software (OriginLab Corporation, CA).
(§5) The glioma suppressive potentials of the new class of HuR multimerization inhibitors were evaluated by utilizing SRI-41664 and SRI-42127 compounds in several cell-based assays. First, it was confirmed that the SRI-41664 and SRI-42127 compounds are cytotoxic for established and PDGx cell lines. FIG. 5A illustrates the inhibitory dose responses of SRI-41664 and SRI-42127 compounds in the established U251, LN229, and the PDGx XD456 glioma cell lines. […] An HuR-overexpression approach was employed to confirm SRI-42127 inhibitory potency against HuR dimerization.

[4] = system: PDGx XD456 glioma cell line; test: PrestoBlue cell viability assay; assay type: cell-based; settings: Glioma cell; XD456, 48 hours of treatment
Procedure: as §4, §5

U251 glioma cell line = test: PrestoBlue cell viability assay; assay type: cell-based; settings: Homo sapiens, U-251, 48 h, U251, 48 hours of treatment; read-out: IC50 cell viability
Procedure: as §4, §5

[5] = system: U251 and XD456 glioma cell lines; test: western blotting of glioma cell fractions (Bcl2, Mcl1, SOX2, cleaved PARP, cleaved caspase 3); assay type: cell-based; settings: U251 and XD456, 10 uM for 48 hours
Procedure: Western blotting was performed. Nuclear and cytoplasmic protein fractionations were performed using NE-PER Nuclear and Cytoplasmic extraction reagents (ThermoFisher Scientific). Anti-lamin A/C and anti-Tubulin alpha antibodies were utilized to verify nuclear and cytoplasmic fractions, respectively. Antibodies against lamin A/C, cleaved PARP, cleaved caspase 3, SOX2, and Mcl1 were purchased from Cell Signaling Technology (Danvers, MA). Anti-Tubulin alpha antibody was purchased from Sigma-Aldrich. Antibodies against HuR, actin, and Bcl2 were purchased from Santa Cruz Biotechnology (Santa Cruz, CA). Polyclonal anti-HuR antibody for HuR/mRNA co-immunoprecipitation was purchased from MBL International (Woburn, MA).
In FIG. 8B, representative western blots confirm reduction of Bcl2 and Mcl1 proteins in cytoplasmic fractions of U251 and XD456 cell lines following treatment with compounds as described herein, 10 uM for 48 hours. SOX2 reduction in nuclear fractions indicates decrease of tumorigenicity of cell lines after treatment with compounds as described herein. Actin and Lamin A/C were utilized for data normalization in cytoplasmic and nuclear fractions, respectively.
In FIG. 8C, representative western blots illustrate appearances of cleaved PARP and cleaved caspase 3 in glioma cell lines after treatment with compounds as described herein, 10 uM for 48 hours. […]

[6] = U251 cells co-expressing HuR-Nluc and HuR-Cluc, 6 hours of treatment
[7] = split luciferase HuR dimerization assay, compounds administered for 6 hours

Chain of PIM1 (P11309 whole entry): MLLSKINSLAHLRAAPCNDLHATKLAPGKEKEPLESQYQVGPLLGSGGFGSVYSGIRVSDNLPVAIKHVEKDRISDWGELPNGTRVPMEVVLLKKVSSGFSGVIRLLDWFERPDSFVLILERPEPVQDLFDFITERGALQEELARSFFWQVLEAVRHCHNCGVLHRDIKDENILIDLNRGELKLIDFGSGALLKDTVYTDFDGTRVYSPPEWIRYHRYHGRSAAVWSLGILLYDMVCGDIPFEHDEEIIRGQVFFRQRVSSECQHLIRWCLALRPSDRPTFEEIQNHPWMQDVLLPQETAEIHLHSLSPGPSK
T1 sequence (Q15717 whole entry): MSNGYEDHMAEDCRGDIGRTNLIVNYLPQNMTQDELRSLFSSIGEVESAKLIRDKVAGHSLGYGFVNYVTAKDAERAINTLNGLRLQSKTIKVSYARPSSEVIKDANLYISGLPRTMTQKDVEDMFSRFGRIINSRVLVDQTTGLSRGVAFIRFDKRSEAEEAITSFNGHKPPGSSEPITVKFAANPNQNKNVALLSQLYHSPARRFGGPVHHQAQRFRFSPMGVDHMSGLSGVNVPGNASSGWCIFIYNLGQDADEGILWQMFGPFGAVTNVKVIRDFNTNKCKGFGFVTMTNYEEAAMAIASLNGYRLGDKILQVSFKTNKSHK
Chain of AAK1 (Q2M2I8 whole entry): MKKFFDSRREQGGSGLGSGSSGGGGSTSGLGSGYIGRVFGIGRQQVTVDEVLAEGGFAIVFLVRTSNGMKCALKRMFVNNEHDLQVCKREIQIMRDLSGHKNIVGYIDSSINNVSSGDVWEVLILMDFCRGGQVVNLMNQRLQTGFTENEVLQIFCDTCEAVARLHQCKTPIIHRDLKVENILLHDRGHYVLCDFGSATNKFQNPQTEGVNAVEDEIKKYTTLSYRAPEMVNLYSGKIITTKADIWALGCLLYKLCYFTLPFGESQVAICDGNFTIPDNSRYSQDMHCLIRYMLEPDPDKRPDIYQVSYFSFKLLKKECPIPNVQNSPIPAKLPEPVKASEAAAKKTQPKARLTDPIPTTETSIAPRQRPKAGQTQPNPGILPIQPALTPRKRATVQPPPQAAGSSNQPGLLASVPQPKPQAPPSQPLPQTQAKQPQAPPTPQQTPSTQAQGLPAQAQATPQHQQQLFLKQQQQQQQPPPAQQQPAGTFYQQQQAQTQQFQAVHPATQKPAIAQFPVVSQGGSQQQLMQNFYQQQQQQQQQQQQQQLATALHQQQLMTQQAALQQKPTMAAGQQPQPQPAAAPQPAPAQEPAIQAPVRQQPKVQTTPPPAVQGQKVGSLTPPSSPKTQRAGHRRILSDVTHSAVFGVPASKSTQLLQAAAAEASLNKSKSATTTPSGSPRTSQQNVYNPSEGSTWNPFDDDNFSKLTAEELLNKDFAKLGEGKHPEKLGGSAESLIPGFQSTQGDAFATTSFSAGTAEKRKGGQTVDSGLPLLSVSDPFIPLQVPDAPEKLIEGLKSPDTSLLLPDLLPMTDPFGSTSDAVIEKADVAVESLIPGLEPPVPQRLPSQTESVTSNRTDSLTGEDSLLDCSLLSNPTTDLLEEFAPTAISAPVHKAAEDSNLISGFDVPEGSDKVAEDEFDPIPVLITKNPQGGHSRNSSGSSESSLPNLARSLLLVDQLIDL
Chain of cMET (P08581 25-1390): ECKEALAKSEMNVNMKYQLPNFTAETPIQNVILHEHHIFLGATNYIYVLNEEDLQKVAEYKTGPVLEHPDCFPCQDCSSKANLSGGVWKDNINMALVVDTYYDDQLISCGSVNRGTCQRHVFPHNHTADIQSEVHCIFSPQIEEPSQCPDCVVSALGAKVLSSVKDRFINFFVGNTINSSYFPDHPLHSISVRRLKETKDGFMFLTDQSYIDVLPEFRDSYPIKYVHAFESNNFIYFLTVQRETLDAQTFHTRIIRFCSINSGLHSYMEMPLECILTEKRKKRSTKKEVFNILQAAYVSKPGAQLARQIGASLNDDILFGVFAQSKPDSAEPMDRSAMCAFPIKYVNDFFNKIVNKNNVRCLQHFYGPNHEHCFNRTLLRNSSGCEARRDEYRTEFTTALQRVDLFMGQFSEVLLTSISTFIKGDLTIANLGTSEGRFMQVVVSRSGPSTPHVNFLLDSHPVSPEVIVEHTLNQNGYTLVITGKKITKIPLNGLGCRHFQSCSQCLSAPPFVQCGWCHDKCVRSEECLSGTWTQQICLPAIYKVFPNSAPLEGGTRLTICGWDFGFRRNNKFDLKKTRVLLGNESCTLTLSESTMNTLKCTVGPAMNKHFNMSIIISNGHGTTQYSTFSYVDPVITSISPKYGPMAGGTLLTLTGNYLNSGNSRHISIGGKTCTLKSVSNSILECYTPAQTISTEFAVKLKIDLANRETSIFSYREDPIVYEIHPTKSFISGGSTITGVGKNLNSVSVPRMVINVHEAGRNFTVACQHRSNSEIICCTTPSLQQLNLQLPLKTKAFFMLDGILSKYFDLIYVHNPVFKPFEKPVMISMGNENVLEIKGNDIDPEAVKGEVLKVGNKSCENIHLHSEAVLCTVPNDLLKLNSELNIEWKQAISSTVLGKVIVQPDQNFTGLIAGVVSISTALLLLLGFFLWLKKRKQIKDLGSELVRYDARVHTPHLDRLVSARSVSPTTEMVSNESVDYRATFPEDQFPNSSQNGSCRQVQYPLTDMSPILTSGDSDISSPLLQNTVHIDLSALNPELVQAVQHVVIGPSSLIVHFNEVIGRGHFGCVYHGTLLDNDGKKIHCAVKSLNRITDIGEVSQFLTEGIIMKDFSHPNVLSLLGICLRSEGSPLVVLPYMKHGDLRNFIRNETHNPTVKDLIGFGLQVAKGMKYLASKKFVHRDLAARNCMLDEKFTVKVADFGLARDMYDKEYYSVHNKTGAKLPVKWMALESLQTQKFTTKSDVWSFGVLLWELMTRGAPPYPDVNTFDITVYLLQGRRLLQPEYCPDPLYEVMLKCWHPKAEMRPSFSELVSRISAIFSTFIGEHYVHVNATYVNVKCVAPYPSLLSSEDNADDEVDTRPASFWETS
Chain of TRKA (NTRK1) (P04629 33-796): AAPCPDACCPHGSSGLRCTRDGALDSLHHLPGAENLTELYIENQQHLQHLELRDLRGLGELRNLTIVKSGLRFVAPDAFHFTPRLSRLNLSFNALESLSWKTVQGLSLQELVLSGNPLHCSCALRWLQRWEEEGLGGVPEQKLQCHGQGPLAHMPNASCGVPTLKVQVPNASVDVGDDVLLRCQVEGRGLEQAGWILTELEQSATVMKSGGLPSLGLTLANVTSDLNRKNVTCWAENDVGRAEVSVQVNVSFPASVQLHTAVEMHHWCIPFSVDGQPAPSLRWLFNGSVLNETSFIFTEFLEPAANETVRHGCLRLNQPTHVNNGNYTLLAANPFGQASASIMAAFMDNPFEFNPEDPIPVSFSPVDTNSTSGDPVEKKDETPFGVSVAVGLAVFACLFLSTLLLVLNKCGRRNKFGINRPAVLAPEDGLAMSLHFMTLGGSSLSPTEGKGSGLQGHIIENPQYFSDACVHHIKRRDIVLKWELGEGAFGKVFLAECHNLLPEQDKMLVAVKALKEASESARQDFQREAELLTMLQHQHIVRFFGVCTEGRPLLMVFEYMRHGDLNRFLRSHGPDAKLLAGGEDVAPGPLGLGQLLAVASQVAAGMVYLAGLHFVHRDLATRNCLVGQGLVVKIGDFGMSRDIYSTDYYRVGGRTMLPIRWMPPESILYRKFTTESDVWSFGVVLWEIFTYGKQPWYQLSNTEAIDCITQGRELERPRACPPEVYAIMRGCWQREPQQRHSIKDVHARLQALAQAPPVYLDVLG
Chain of IRAK1 (P51617 whole entry): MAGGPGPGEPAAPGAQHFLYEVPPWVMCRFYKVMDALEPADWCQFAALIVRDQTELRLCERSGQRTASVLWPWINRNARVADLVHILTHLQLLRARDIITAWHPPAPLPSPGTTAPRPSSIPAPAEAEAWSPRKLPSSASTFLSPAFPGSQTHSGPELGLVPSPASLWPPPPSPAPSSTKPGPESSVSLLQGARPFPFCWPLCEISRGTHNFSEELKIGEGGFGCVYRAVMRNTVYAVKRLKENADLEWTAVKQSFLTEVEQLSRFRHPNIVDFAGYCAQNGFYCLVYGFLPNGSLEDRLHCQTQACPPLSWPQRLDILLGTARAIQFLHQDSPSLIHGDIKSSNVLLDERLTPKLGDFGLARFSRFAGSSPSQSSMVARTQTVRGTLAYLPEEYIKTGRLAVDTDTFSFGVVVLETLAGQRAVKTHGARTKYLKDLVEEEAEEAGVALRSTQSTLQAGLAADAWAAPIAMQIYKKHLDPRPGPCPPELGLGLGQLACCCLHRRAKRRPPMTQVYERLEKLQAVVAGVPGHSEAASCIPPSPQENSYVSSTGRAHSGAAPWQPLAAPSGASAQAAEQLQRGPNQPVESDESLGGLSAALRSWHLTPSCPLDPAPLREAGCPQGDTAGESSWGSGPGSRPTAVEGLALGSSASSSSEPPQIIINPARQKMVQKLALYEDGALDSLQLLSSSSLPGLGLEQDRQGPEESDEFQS

| Compound | HuR N/C Imax % Inh (HuR) | IC50 (HuR; [6]) | IC50 (HuR; [7]) | solubility [2] | logD (Log D at pH 7.4) | half-life [3] | half-life (in vitro) | IC50 (AAK1) | IC50 (IRAK1) | IC50 (PIM1) | IC50 (TRKA (NTRK1)) | IC50 (cMET) | IC50 (LN229 glioma cell line) | IC50 [4] | IC50 (U251 glioma cell line) | HuR inhibition activity (in words) (HuR) | inhibition at 50 µM [1] | Bcl2 and Mcl1 protein levels in cytoplasmic fractions [5] | cleaved caspase 3 and cleaved PARP (apoptosis) [5] |
| --- | --- | --- | --- | --- | --- | --- | --- | --- | --- | --- | --- | --- | --- | --- | --- | --- | --- | --- | --- |
| FC1(F)CCC(Nc2ccc3ncc(-c4ccc5cn[nH]c5c4)n3n2)CC1 [Compound 23, N-(4,4-Difluorocyclohexyl)-3-(1H-indazol-6-yl)imidazo[1,2-b]pyridazin-6-amine] | 92% | 2.8 µM | 2.8 µM | 2.1 µM (≈ 0.774 µg/mL) | > 4.23 | 3.9 min | 27.3 min | – | – | – | – | – | – | – | – | – | 39% | – | – |
| c1cc2cn[nH]c2cc1-c1cnc2ccc(NC3CCOCC3)nn12 [Compound 5] | – | – | – | – | – | – | – | 0.03 µM | 0.3 µM | 0.829 µM | 0.099 µM | 5.98 µM | 3.8 ± 0.5 µM | 4.8 ± 1.1 µM | 3.4 ± 0.5 µM | – | 38% | dramatic reduction | appearances of cleaved caspase 3 and cleaved PARP |
| CCN(c1ccc2ncc(-c3ccc4cn[nH]c4c3)n2n1)C1CCOCC1 [Compound 26] | – | – | > 50 µM | – | – | – | – | 15.7 µM | > 30 µM | > 30 µM | > 30 µM | > 30 µM | – | – | – | inactive | – | – | – |
| CCCN(c1ccc2ncc(-c3ccc4cn[nH]c4c3)n2n1)C1CCOCC1 [Compound 27] | – | – | > 50 µM | 65.3 µM (≈ 24.6 µg/mL) | 0.4 | 9.8 min | > 300 min | 13 µM | > 30 µM | > 30 µM | > 30 µM | > 30 µM | – | – | – | inactive | – | – | – |

Now from value to compound, other results behind:

| HuR N/C Imax % Inh (HuR) | IC50 (HuR; [6]) | IC50 (HuR; [7]) | solubility [2] | logD (Log D at pH 7.4) | half-life [3] | half-life (in vitro) | IC50 (AAK1) | IC50 (IRAK1) | IC50 (PIM1) | IC50 (TRKA (NTRK1)) | IC50 (cMET) | IC50 (LN229 glioma cell line) | IC50 [4] | IC50 (U251 glioma cell line) | HuR inhibition activity (in words) (HuR) | Compound | inhibition at 50 µM [1] | Bcl2 and Mcl1 protein levels in cytoplasmic fractions [5] | cleaved caspase 3 and cleaved PARP (apoptosis) [5] |
| --- | --- | --- | --- | --- | --- | --- | --- | --- | --- | --- | --- | --- | --- | --- | --- | --- | --- | --- | --- |
| 91% | 2.2 µM | 2.2 µM | 2.5 µM (≈ 0.801 µg/mL) | > 4.55 | 1.3 min | 7.9 min | – | – | – | – | – | – | – | – | – | CCCN(C)c1ccc2ncc(-c3ccc4cnn(C)c4c3)n2n1 [Compound 30, N-Methyl-3-(1-methyl-1H-indazol-6-yl)-N-propylimidazo[1,2-b]pyridazin-6-amine] | 36% | – | – |
| 72% | 6 µM | 6 µM | < 1 µM | > 4.48 | 1.3 min | 6.3 min | – | – | – | – | – | – | – | – | – | CCCN(C)c1ccc2ncc(-c3ccc4[nH]nc(C(C)=O)c4c3)n2n1 [Compound 53, 1-(5-(6-(Methyl(propyl)amino)imidazo[1,2-b]pyridazin-3-yl)-1H-indazol-3-yl)ethan-1-one] | 10% | – | – |
| 92% | 1.1 µM | 1.1 µM | 3.4 µM (≈ 1.23 µg/mL) | > 4.06 | 8.7 min | 7.2 min | – | – | – | – | – | – | – | – | potent activity | CC1(C)CC(Nc2ccc3ncc(-c4ccc5[nH]ncc5c4)n3n2)CCO1 (centres unmarked) [Compound 45, N-(2,2-Dimethyltetrahydro-2H-pyran-4-yl)-3-(1H-indazol-5-yl)imidazo[1,2-b]pyridazin-6-amine] | 25% | – | – |
